The values that follow come from US20220202943A1, “TOPICAL COMPOSITIONS FOR SKIN COMPRISING A CELL PENETRATING PEPTIDE AND METHODS OF USING THE SAME” (ImDerma Laboratories Co. Ltd., priority 2020, published 2022).

Where no end group is shown, it is not given here.

Type in all cases: cell-based, human
The test system of one data set is type I pro-collagen. In words: Type I pro-collagen level in Hs68 cells, ELISA. The note with it: TGF-β 10 ng/mL. The method, then: In order to confirm if the peptide X is capable of delivering TGF-β into skin cells, Hs68 cells were seeded in a 6-well plate. Following the removal the medium in the 6-well plate, TGF-β (10 ng/mL), peptide X (1.0 μM) or a mixture of TGF-β (10 ng/mL) and peptide X (1.0 μM) were added in the 6-well plate. After 6, 12 or 24 hours of reaction, the level of type I pro-collagen in the cells was confirmed using ELISA kit with human pro-collagen 1 alpha 1 capture antibody and human pro-collagen 1 alpha 1 detector antibody.
In general terms: ELISA stands for enzyme-linked immunosorbent assay.

The subject of data set [1] is HaCaT cells. The data set can be described thus: Cell viability of HaCaT cells, MTT assay. The settings on record: 1.0 μM peptide X. How it is done: (§1) Following the removal of DMEM medium in the 96-well plate, 100 uL of 1 μM peptide X and 100 uL of tea polyphenols (0.01%, 0.05% or 0.1%), were added in the 96-well plate. After 2, 4, 6, 16 or 24 hours of reaction, the peptide X and tea polyphenols were removed and then DMEM medium with 1.2 mM H2O2 was added for 2 hours of reaction in dark to induce intracellular ROS in the HaCaT cells. After the above reaction, DMEM medium with 1.2 mM H2O2 was removed from the 96-well plate and 100 μL of 10 μM DCFDA (2′,7′—dichlorofluorescin diacetate) was added for half an hour of reaction to measure the levels of intracellular ROS in HaCaT cells using fluorescence assay. Following the removal of DCFDA, the treated cells were washed with 200 μL of PBS. Subsequently, after PBS was removed, 100 μL of transparent DMEM medium was added and absorbance at 488/520 nm was measured to determinate the levels of intracellular ROS. After the above measurement, the transparent DMEM medium was removed and then 100 μL of 1 mg/mL MTT was added for 2 hours of reaction; subsequently, the absorbance at 595 nm was measured for calculating the cell viability.
EUK134™ (0.12 μM, 0.23 μM or 2.35 μM) or a mixture of peptide X (1 μM) and EUK134™ (0.12 μM or 0.23 μM), were added in HaCaT cells for 8 hours of reaction. […]

Data set [2] concerns HaCaT cells. In words: Intracellular ROS induced by H2O2 in HaCaT cells, DCFDA fluorescence assay. How it is done:
as §1
EUK134™ (0.12 μM, 0.23 μM or 2.35 μM) or a mixture of peptide X (1 μM) and EUK134™ (0.12 μM or 0.23 μM), were added in HaCaT cells for 8 hours of reaction. Following the removal of EUK134™ and the mixture of peptide X and EUK134™, 1.2 mM H2O2 was added to induce intracellular ROS in the HaCaT cells and then the levels of intracellular ROS were detected using DCFDA. After the detection of the levels of intracellular ROS, the cell viability was confirmed using MTT assay.
Resveratrol (6.25 μM, 12.5 μM or 25 μM) or a mixture of peptide X (1 μM) and resveratrol (6.25 μM, 12.5 μM or 25 μM), were added in HaCaT cells for different time of reaction. Following the removal of resveratrol and the mixture of peptide X and resveratrol, 1.2 mM H2O2 was added to induce intracellular ROS in the HaCaT cells and then the levels of intracellular ROS were detected using DCFDA. After the detection of the levels of intracellular ROS, the cell viability was confirmed using MTT assay.

TGF-β: the “increase of expression of type I pro-collagen” value in the data set on type I pro-collagen is given as about 20%.
Take “NYRWRCKNQN [peptide X, Asn-Tyr-Arg-Trp-Arg-Cys-Lys-Asn-Gln-Asn]”: the “cytotoxicity to HaCaT cells” value in the data set on HaCaT cells [1] is “no cytotoxicity”.
Take `Oc1ccc(/C=C/c2cc(O)cc(O)c2)cc1` [resveratrol, reference compound]: the “reduction of level of intracellular ROS induced by H2O2” value with HaCaT cells [2] (resveratrol 6.25, 12.5 or 25 μM without peptide X, no significant difference among concentrations) is 75˜80%.
For the compound “ethylbisiminomethylguaiacol manganese chloride [EUK134™]”, the “reduction of level of intracellular ROS induced by H2O2” value in the data set with HaCaT cells [2] (0.12 μM EUK134 without peptide X, 8 hours of treatment) amounted to 50%. Moreover, the “reduction of level of intracellular ROS” value in the data set with HaCaT cells [2] (0.23 μM EUK134 without peptide X, 8 hours of treatment) was 50%. The “level of intracellular ROS induced by H2O2” value in the data set with HaCaT cells [2] (EUK134 0.12, 0.23 or 2.35 μM without peptide X, with the increase of concentration, 8 hours) is on record as “slightly decreased”.
